According to paper PMC2956624, “Context-Dependent Cell Cycle Checkpoint Abrogation by a Novel Kinase Inhibitor” (PLoS ONE, 2010):

Test system: HT29 cells
Experiment: Flow cytometry cell cycle profiles, HT29
Format: cell-based, human
Details: for abrogation of DNA damage induced cell cycle arrest: DNA damaging agent 16 hours, then PF-477736 (400 nM) or VX680 (400 nM) 48 hours
Description: Fixed cells were analyzed by flow cytometry.
All cells were harvested, fixed in 70% ethanol and stained with propidium iodide/RNase A. Cell cycle profiles were examined by flow cytometry using a FACSArray cytometer (BD) and FACSDiva software (BD).

Structure (SMILES) | abrogation of DNA damage induced cell cycle arrest | cells remaining arrested in G2 or M (100 nM paclitaxel 18 hours, then 24 hours with 200 nM VER-150548 or 400 nM VX680 (DMSO 65.4%)) [%] | cell cycle effect as single agent (unperturbed cells, 8 to 48 hours)
Cn1cc(-c2[nH]c3cc(NC(=O)[C@H](N)C4CCCCC4)cc4c3c2C=NNC4=O)cn1 [PF-477736] | abrogated DNA damage induced cell cycle arrest | – | –
Cc1cc(Nc2cc(N3CCN(C)CC3)nc(Sc3ccc(NC(=O)C4CC4)cc3)n2)[nH]n1 [VX680] | unable to override the DNA damage induced arrest | 28.5 | caused G2/M arrest at early time points and subsequent reduplication following extended incubation
